From patent US6613799B1, “Liposoluble platinum (II) complex and preparation thereof” (priority 1985, dated 2003)
Where two headings read alike, the source gives them in different places. Marks after values point to notes of the source that are not given here.

Tests used:
[1] = system: L 1210 leukemia cells; type: in vivo
[2] = cited from earlier work
[3] = 11.6 mg/kg × 2 i.p., dispersion in lipiodol, oleic acid moiety two times stoichiometric amount, Table III
[4] = L1210-CDF1 mice, dispersion in lipiodol
[5] = 25 mg/kg × 2 i.p. in lipiodol, Table I
[6] = 126 mg/kg × 2 i.p. in lipiodol, Table I
[7] = 630 mg/kg × 2 i.p. in lipiodol, Table I
[8] = 57 mg/kg × 2 i.p. in lipiodol, Table III
[9] = 171 mg/kg × 2 i.p. in lipiodol, Table III
[10] = 855 mg/kg × 2 i.p. in lipiodol, Table III
[11] = 31.5 mg/kg × 2 i.p. in lipiodol, Table III
[12] = 157 mg/kg × 2 i.p. in lipiodol, Table III
[13] = 787 mg/kg, administered only one time, i.p. in lipiodol, Table III

N.N.[Cl][Pt][Cl] [CDDP, Cis-dichlorodiammine platinum (II), reference compound]
CR (mice completely cured / total mice tested) [1, 3]: 0/5
T/C (mean survival time treated / control) [1, 3]: 182
MST (mean survival time) ([1]; 11.6 mg/kg × 2 i.p., dispersion in lipiodol, oleic acid moiety two times stoichiometric amount, Table III control MST 8.5): 15.5
T/C (mean survival time treated / control) ([1]; 58 mg/kg × 2 i.p., dispersion in lipiodol, oleic acid moiety two times stoichiometric amount, Table III): Toxic
MST (mean survival time) ([1]; 58 mg/kg × 2 i.p., dispersion in lipiodol, oleic acid moiety two times stoichiometric amount, Table III control MST 8.5): 4.0
complete recovery at rather low dose [1, 4]: complete recovery is not observed

CCCCCCCCCCCCCCCCCCCCCCCC(=O)[O][Pt][O]C(=O)CCCCCCCCCCCCCCCCCCCCCCC.NC1CCCCC1N [DACHPt(II)-(Lig)2]
T/C (mean survival time treated / control) ([1]; 50 mg/kg × 2 i.p. in lipiodol, Table I): 150
MST (mean survival time) ([1]; 50 mg/kg × 2 i.p. in lipiodol, Table I control MST 10): 10
T/C (mean survival time treated / control) ([1]; 250 mg/kg × 2 i.p. in lipiodol, Table I): 100
MST (mean survival time) ([1]; 250 mg/kg × 2 i.p. in lipiodol, Table I control MST 10): 10
T/C (mean survival time treated / control) ([1]; 1250 mg/kg × 2 i.p. in lipiodol, Table I): 105
MST (mean survival time) ([1]; 1250 mg/kg × 2 i.p. in lipiodol, Table I control MST 10): 10.5
CR (mice completely cured / total mice tested) ([1]; mouse, in vivo): 0/6

NCC1(CN)CCCCC1.O=S(=O)([O-])[O-].[Pt+2] [spiroplatin, cis-1,1-di-(aminomethyl) cyclohexane platinum (II) sulfate]
water solubility [2]: 1000 µg/mL

CCCCCCCCCCCCCCCC(=O)[O][Pt][O]C(=O)CCCCCCCCCCCCCCC.NC1CCCCC1N [DACHPt(II)-(Pal)2]
T/C (mean survival time treated / control) ([1]; 40 mg/kg × 2 i.p. in lipiodol, Table I): 110
MST (mean survival time) ([1]; 40 mg/kg × 2 i.p. in lipiodol, Table I control MST 10): 11
T/C (mean survival time treated / control) ([1]; 198 mg/kg × 2 i.p. in lipiodol, Table I): 115
MST (mean survival time) ([1]; 198 mg/kg × 2 i.p. in lipiodol, Table I control MST 10): 11.5
T/C (mean survival time treated / control) ([1]; 991 mg/kg × 2 i.p. in lipiodol, Table I): 170
MST (mean survival time) ([1]; 991 mg/kg × 2 i.p. in lipiodol, Table I control MST 10): 17
CR (mice completely cured / total mice tested) ([1]; mouse, in vivo): 0/6

NC1CCCCC1N.[Cl][Pt][Cl] (stereo not drawn) [DACHP, Dichloro cyclohexane-1,2-diammine platinum (II), reference compound]
T/C (mean survival time treated / control) ([1]; 22 mg/kg × 2 i.p., dispersion in lipiodol, oleic acid moiety two times stoichiometric amount, Table III): Toxic
MST (mean survival time) ([1]; 22 mg/kg × 2 i.p., dispersion in lipiodol, oleic acid moiety two times stoichiometric amount, Table III control MST 8.5): 7.0
T/C (mean survival time treated / control) ([1]; 110 mg/kg × 2 i.p., dispersion in lipiodol, oleic acid moiety two times stoichiometric amount, Table III): Toxic
MST (mean survival time) ([1]; 110 mg/kg × 2 i.p., dispersion in lipiodol, oleic acid moiety two times stoichiometric amount, Table III control MST 8.5): 4.0
toxicity when administered in a high dose ([1]; high dose, L1210-CDF1 mice, i.p. in lipiodol): high toxicity
complete recovery at rather low dose [1, 4]: complete recovery is not observed

CCCCCCCC/C=C\CCCCCCCC(=O)[O-].CCCCCCCC/C=C\CCCCCCCC(=O)[O-].NC1CCCCC1N.[Pt+2] [DACHPt(II)-(Ole)2, Cyclohexane-1,2-diammine Platinum (II) Dioleate]
CR (mice completely cured / total mice tested) [1, 5]: 0/5
T/C (mean survival time treated / control) [1, 5]: 130
MST (mean survival time) ([1]; 25 mg/kg × 2 i.p. in lipiodol, Table I control MST 10): 13.0
CR (mice completely cured / total mice tested) [1, 6]: 0/6
T/C (mean survival time treated / control) [1, 6]: 170
MST (mean survival time) ([1]; 126 mg/kg × 2 i.p. in lipiodol, Table I control MST 10): 17.0
CR (mice completely cured / total mice tested) [1, 7]: 2/7
T/C (mean survival time treated / control) [1, 7]: Toxic

CCCCCCCCCCCC(=O)[O][Pt][O]C(=O)CCCCCCCCCCC.NC1CCCCC1N [DACHPt(II)-(Lau)2]
CR (mice completely cured / total mice tested) [1, 8]: 0/5
T/C (mean survival time treated / control) [1, 8]: 141
MST (mean survival time) ([1]; 57 mg/kg × 2 i.p. in lipiodol, Table III control MST 8.5): 12.0
CR (mice completely cured / total mice tested) [1, 9]: 0/5
T/C (mean survival time treated / control) [1, 9]: 165
MST (mean survival time) ([1]; 171 mg/kg × 2 i.p. in lipiodol, Table III control MST 8.5): 14.0
CR (mice completely cured / total mice tested) [1, 10]: 3/5
T/C (mean survival time treated / control) [1, 10]: 471
MST (mean survival time) ([1]; 855 mg/kg × 2 i.p. in lipiodol, Table III control MST 8.5): 40.0

CCCCCCCCCCCCCCCCCCCC(=O)[O][Pt][O]C(=O)CCCCCCCCCCCCCCCCCCC.NC1CCCCC1N [DACHPt(II)-(Ara)2]
T/C (mean survival time treated / control) ([1]; 73 mg/kg × 2 i.p. in lipiodol, Table II): 211
MST (mean survival time) ([1]; 73 mg/kg × 2 i.p. in lipiodol, Table II control MST 9.5): 20
T/C (mean survival time treated / control) ([1]; 225 mg/kg × 2 i.p. in lipiodol, Table II): 600
MST (mean survival time) ([1]; 225 mg/kg × 2 i.p. in lipiodol, Table II control MST 9.5): 60
T/C (mean survival time treated / control) ([1]; 1127 mg/kg × 2 i.p. in lipiodol, Table II): Toxic
MST (mean survival time) ([1]; 1127 mg/kg × 2 i.p. in lipiodol, Table II control MST 9.5): 7.0

CCCCCCCCCCCCCC(=O)[O][Pt][O]C(=O)CCCCCCCCCCCCC.NC1CCCCC1N [DACHPt(II)-(Myr)2]
T/C (mean survival time treated / control) ([1]; 33 mg/kg × 2 i.p. in lipiodol, Table I): 150
MST (mean survival time) ([1]; 33 mg/kg × 2 i.p. in lipiodol, Table I control MST 10): 15.0
T/C (mean survival time treated / control) ([1]; 833 mg/kg, administered only one time, i.p. in lipiodol, Table I): Toxic
MST (mean survival time) ([1]; 833 mg/kg, administered only one time, i.p. in lipiodol, Table I control MST 10): 8.0*^1

CCCCCCCCCC(=O)[O][Pt]1([O]C(=O)CCCCCCCCC)[NH]C2CCCCC2[NH]1 (stereo not drawn) [DACHPt(II)-(Cap)2]
CR (mice completely cured / total mice tested) [1, 11]: 0/6
T/C (mean survival time treated / control) [1, 11]: 133
MST (mean survival time) ([1]; 31.5 mg/kg × 2 i.p. in lipiodol, Table III control MST 8.5): 12.0
CR (mice completely cured / total mice tested) [1, 12]: 2/6
T/C (mean survival time treated / control) [1, 12]: Toxic
CR (mice completely cured / total mice tested) [1, 13]: 0/6
T/C (mean survival time treated / control) [1, 13]: 111
MST (mean survival time) ([1]; 787 mg/kg, administered only one time, i.p. in lipiodol, Table III control MST 8.5): 10.0*^1

N.N.O=C([O-])C1(C(=O)[O-])CCC1.[Pt+2] [carboplatin, cis-diammine-1,1-cyclobutane-dicarboxylate platinum (II)]
water solubility [2]: 17800 µg/mL

CCCCCCCCCCCCCCCCCC(=O)[O][Pt][O]C(=O)CCCCCCCCCCCCCCCCC.NC1CCCCC1N [DACHPt(II)-(Ste)2]
T/C (mean survival time treated / control) ([1]; 71 mg/kg × 2 i.p. in lipiodol, Table III): 212
MST (mean survival time) ([1]; 71 mg/kg × 2 i.p. in lipiodol, Table III control MST 8.5): 18.0
T/C (mean survival time treated / control) ([1]; 1060 mg/kg, administered only one time, i.p. in lipiodol, Table III): Toxic
MST (mean survival time) ([1]; 1060 mg/kg, administered only one time, i.p. in lipiodol, Table III control MST 8.5): 7.0*^1
CR (mice completely cured / total mice tested) ([1]; mouse, in vivo): 2/5

CCCCCCCCCCCCCCCCCCCCCC(=O)[O][Pt][O]C(=O)CCCCCCCCCCCCCCCCCCCCC.NC1CCCCC1N [DACHPt(II)-(Beh)2]
T/C (mean survival time treated / control) ([1]; 80 mg/kg × 2 i.p. in lipiodol, Table III): 212
MST (mean survival time) ([1]; 80 mg/kg × 2 i.p. in lipiodol, Table III control MST 8.5): 18.0
T/C (mean survival time treated / control) ([1]; 1195 mg/kg, administered only one time, i.p. in lipiodol, Table III): Toxic
MST (mean survival time) ([1]; 1195 mg/kg, administered only one time, i.p. in lipiodol, Table III control MST 8.5): 2.0*^1
